Patent publication US20060281700A1, “SYNERGISTIC MODULATION OF FLT3 KINASE USING AMINOPYRIMIDINES KINASE MODULATORS” (priority 2005, published 2006)

Tests used:
MV4-11 AML cells = assay: Cell proliferation assay, single agents and FTI/FLT3 inhibitor combinations, MV4-11; type: cell-based, human
Method: Using this method inhibitors are added simultaneously to cells in a ratio of the IC50 dose of each compound alone. The data is collected and subject to isobolar analysis of fixed ratio dose combinations as described by Chou and Talalay. This analysis is used to generate a combination index or CI. The CI value of 1 corresponds to compounds that behave additively; CI values <0.9 are considered synergistic and CI values of >1.1 are considered antagonistic. Using this method, multiple FTI and FLT3 combinations were evaluated. […] Using the isobologram, synergy can be graphically represented. Data points for combinations that are additive lie along the isobolar line at a given dose affect (CI=1). Data points for combinations that are synergistic fall to the left, or under, the isobolar line for a given dose effect (CI<0.9). Data points for combinations that are antagonistic fall to the right, or over, the isobolar line for a given dose effect (CI>1.1).
Inhibition data was analyzed using Calcsyn (BioSoft, Ferguson, Mo.) and the combination index (C.I.) calculated. C.I. values <0.9 are considered synergistic.

[1] = cited from earlier work
MV4-11 tumor xenografts = assay: MV4-11 human tumor xenograft regression model in nude mice; type: in vivo
Method: Female athymic nude mice (CD-1, nu/nu, 9-10 weeks old) were obtained from Charles River Laboratories (Wilmington, Mass.) and were maintained according to NIH standards. All mice were group housed (5 mice/cage) under clean-room conditions in sterile micro-isolator cages on a 12-hour light/dark cycle in a room maintained at 21-22° C. and 40-50% humidity. Mice were fed irradiated standard rodent diet and water ad libitum. All animals were housed in a Laboratory Animal Medicine facility that is fully accredited by the American Association for Assessment and Accreditation of Laboratory Animal Care (AAALAC). […]
The time course of the inhibitory effects of FLT3 inhibitor compounds on the growth of MV4-11 tumors is illustrated in FIG. 1. […] Percent inhibition (% I) of tumor growth was calculated versus tumor growth in the vehicle-treated Control group on the last study day. Statistical significance versus Control was determined by Analysis of Variance (ANOVA) followed by Dunnett's t-test: *p<0.05; **p<0.01.
(See FIG. 2). […] Percent Inhibition was calculated versus the mean tumor weight in the vehicle-treated control group. Statistical significance versus Control was determined by ANOVA followed by Dunnett's t-test: **p<0.01. […]

[2] = multicenter Phase II trial, relapsed AML
[3] = patients with relapsed and refractory AML, phase I

For `Cn1cncc1C(N)(c1ccc(Cl)cc1)c1ccc2c(c1)c(-c1cccc(Cl)c1)cc(=O)n2C` (single isomer, unassigned; (+)) [Tipifarnib, (+)-6-[amino(4-chlorophenyl)(1-methyl-1H-imidazol-5-yl)methyl]-4-(3-chlorophenyl)-1-methyl-2(1H)-quinolinone], the IC50 (MV4-11 AML cells; Homo sapiens, MV4-11 proliferation, FTI alone or in the combination named) is given as 0.0154 µM, the “increase in potency of Tipifarnib with a single sub-IC50 dose of FLT3 inhibitor Compound A” value (MV4-11 AML cells; MV4-11, Compound A 50 nM) is given as “more than 3 fold” and the “>50% reduction in bone marrow blasts” value [1, 2] is given as 31 of 50. For the same molecule, the “complete responses (bone marrow blasts <5%)” value [1, 2] was 17 of 50, the “patients achieving complete remission” value [1, 3] was 2 patients and the response rate [1, 3] was ~30%. The “inhibition of tumor volume vs vehicle-treated control group” value (MV4-11 tumor xenografts; Day 16, Compound D 25 mg/kg bid, Tipifarnib 50 mg/kg, alone or in combination) was “ineffective” and the “tumor growth vs Vehicle-treated group” value (MV4-11 tumor xenografts; Tipifarnib 50 mg/kg single agent, nine days) was “ineffective”.
